Legend:
Nilaparvata lugens [1] = assay: Insecticidal activity against Nilaparvata lugens (brown planthopper) third-instar larvae contacted with rice stems pre-exposed to compound assessed as insect mortality at 10 ppm measured 5 days post insect release by contact exposure test; format: functional; details: 120 h
Cucumis sativus = assay: Phytotoxicity against Cucumis sativus (cucumber) exposed to compound spraying at […] measured 7 days post compound treatment by post-emergence glasshouse test; format: organism-based; details: in vivo, other, 168 h
Nilaparvata lugens [2] = assay: Insecticidal activity against Nilaparvata lugens (brown planthopper) third-instar larvae contacted with rice stems pre-exposed to compound assessed as insect mortality at 1 ppm measured 5 days post insect release by contact exposure test; format: functional; details: 120 h
Myzus persicae [3] = assay: Insecticidal activity against Myzus persicae (green peach aphid) infested Brassica campestris stems followed by cut stem exposure to test compound assessed as insect mortality at 0.1 ppm measured 5 days post compound treatment by systemic exposure test; format: functional; details: 120 h
Myzus persicae [4] = assay: Insecticidal activity against Myzus persicae (green peach aphid) infested Brassica campestris stems followed by leaf exposure to test compound spraying assessed as insect mortality at 10 ppm measured 5 days post compound treatment by contact exposure test; format: functional; details: 120 h
Oryza sativa = assay: Phytotoxicity against Oryza sativa exposed to compound spraying at […] measured 7 days post compound treatment by post-emergence glasshouse test; format: organism-based; details: in vivo, other, 168 h
Nilaparvata lugens [5] = assay: Insecticidal activity against Nilaparvata lugens (brown planthopper) third-instar larvae reared on rice seedlings assessed as insect mortality at 10 ppm measured 5 days post compound treatment by systemic exposure test; format: functional; details: 120 h
Nilaparvata lugens [6] = assay: Insecticidal activity against Nilaparvata lugens (brown planthopper) third-instar larvae reared on rice seedlings assessed as insect mortality at 1 ppm measured 5 days post compound treatment by systemic exposure test; format: functional; details: 120 h
Myzus persicae [7] = assay: Insecticidal activity against Myzus persicae (green peach aphid) infested Brassica campestris stems followed by cut stem exposure to test compound assessed as insect mortality at 1 ppm measured 5 days post compound treatment by systemic exposure test; format: functional; details: 120 h
Myzus persicae [8] = assay: Insecticidal activity against Myzus persicae (green peach aphid) infested Brassica campestris stems followed by leaf exposure to test compound spraying assessed as insect mortality at 1 ppm measured 5 days post compound treatment by contact exposure test; format: functional; details: 120 h

Structure (SMILES)	mortality at 10 ppm (Nilaparvata lugens [1])	Phytotoxicity (Cucumis sativus)	mortality at 1 ppm (Nilaparvata lugens [2])	mortality at 0.1 ppm (Myzus persicae [3])	mortality at 10 ppm (Myzus persicae [4])	Phytotoxicity (Oryza sativa)	mortality at 10 ppm (Nilaparvata lugens [5])	mortality at 1 ppm (Nilaparvata lugens [6])	mortality at 1 ppm (Myzus persicae [7])	mortality at 1 ppm (Myzus persicae [8])
COCCON1C(=O)C(c2c(C)cc(C)cc2C)=C(O)C1(C)C	90%	60%	30%	100%	90%	90%	90%	90%	100%	0%
COCCOCON1C(=O)C(c2c(C)cc(C)cc2C)=C(O)C1(C)C	60%	100%	30%	100%	90%	100%	100%	30%	100%	0%
CSCON1C(=O)C(c2c(C)cc(C)cc2C)=C(O)C1(C)C	30%	0%	30%	30%	0%	90%	100%	30%	90%	0%
Cc1cc(C)c(C2=C(OC(=O)CC(C)(C)C)C(C)(C)N(O)C2=O)c(C)c1	100%	0%	90%	0%	0%	30%	90%	60%	0%	0%
CON1C(=O)C(c2c(C)cc(C)cc2C)=C(OC(=O)CC(C)(C)C)C1(C)C	90%	60%	90%	0%	30%	30%	90%	30%	0%	0%
Cc1cc(C)c(C2=C(OC(=O)CC(C)(C)C)C(C)(C)N(OCC#N)C2=O)c(C)c1	100%	60%	90%	0%	100%	0%	100%	60%	100%	0%
COCON1C(=O)C(c2c(C)cc(C)cc2C)=C(OC(=O)CC(C)(C)C)C1(C)C	100%	90%	30%	100%	100%	100%	–	30%	100%	100%
CCOCON1C(=O)C(c2c(C)cc(C)cc2C)=C(OC(=O)CC(C)(C)C)C1(C)C	100%	60%	100%	60%	100%	0%	100%	0%	100%	100%
CC(=O)ON1C(=O)C(c2c(C)cc(C)cc2C)=C(OC(=O)CC(C)(C)C)C1(C)C	–	0%	60%	0%	0%	60%	–	30%	0%	0%
Cc1cc(C)c(C2=C(OC(=O)CC(C)(C)C)C(C)(C)N(OC(=O)C(C)(C)C)C2=O)c(C)c1	–	0%	0%	0%	0%	0%	–	30%	0%	0%
Cc1cc(C)c(C2=C(OC(=O)CC(C)(C)C)C(C)(C)N(OC(=O)CC(C)(C)C)C2=O)c(C)c1	–	0%	0%	0%	60%	0%	–	0%	0%	0%
COC(=O)ON1C(=O)C(c2c(C)cc(C)cc2C)=C(OC(=O)CC(C)(C)C)C1(C)C	–	0%	60%	0%	0%	60%	–	30%	0%	0%
Cc1cc(C)c(C2=C(OC(=O)CC(C)(C)C)C(C)(C)N(OS(C)(=O)=O)C2=O)c(C)c1	–	0%	0%	0%	0%	0%	–	0%	0%	0%
Cc1cc(C)c(C2=C(OC(=O)CC(C)(C)C)C(C)(C)N(OC(=O)N(C)C)C2=O)c(C)c1	–	0%	0%	0%	0%	0%	–	30%	0%	0%
CON1C(=O)C(c2c(C)cc(C)cc2C)=C(O)C1(C)C	90%	60%	30%	0%	60%	100%	100%	100%	100%	0%
CCON1C(=O)C(c2c(C)cc(C)cc2C)=C(O)C1(C)C	100%	0%	60%	60%	0%	100%	90%	60%	100%	0%
CCCON1C(=O)C(c2c(C)cc(C)cc2C)=C(O)C1(C)C	100%	0%	30%	90%	30%	100%	100%	60%	90%	0%
Cc1cc(C)c(C2=C(O)C(C)(C)N(OC(C)C)C2=O)c(C)c1	60%	0%	30%	0%	0%	100%	90%	30%	60%	0%
C=CCON1C(=O)C(c2c(C)cc(C)cc2C)=C(O)C1(C)C	90%	0%	60%	60%	100%	100%	100%	60%	100%	0%
C#CCON1C(=O)C(c2c(C)cc(C)cc2C)=C(O)C1(C)C	100%	0%	60%	60%	90%	100%	90%	90%	100%	0%
Cc1cc(C)c(C2=C(O)C(C)(C)N(O)C2=O)c(C)c1	0%	60%	0%	0%	60%	90%	–	0%	100%	0%
Cc1cc(C)c(C2=C(O)C(C)(C)N(OCC3CCCCC3)C2=O)c(C)c1	90%	0%	30%	0%	0%	60%	60%	60%	60%	0%
Cc1cc(C)c(C2=C(O)C(C)(C)N(OCc3ccccc3)C2=O)c(C)c1	0%	0%	30%	0%	0%	30%	100%	30%	0%	0%
COCON1C(=O)C(c2c(C)cc(C)cc2C)=C(O)C1(C)C	100%	90%	60%	100%	100%	100%	100%	60%	100%	0%

From ChEMBL document CHEMBL3044901, “Synthesis and insecticidal activity of N-oxydihydropyrroles: 4-hydroxy-3-mesityl-5,5-dimethyl derivatives with various substituents at the 1-position” (Biosci Biotechnol Biochem, 2002)
